In patent publication US11358947B2, “Substituted 2-acylamino-cycloalkylthiophene-3-carboxylic acid arylamides as inhibitors of calcium-activated chloride channel TMEM16A” (THE REGENTS OF THE UNIVERSITY OF CALIFORNIA, priority 2017, dated 2022):
“Also recorded” adds a separate entry of the source.

Legend:
TMEM16B = target: T1, TMEM16B (Homo sapiens, UniProt Q9NQ90); assay: TMEM16B fluorescence plate reader assay in FRT cells; format: cell-based
T1 construct: expressed in transfected cells; host or cells: Fischer Rat Thyroid (FRT) cells co-expressing YFP
T1 sequence (Q9NQ90 1-998): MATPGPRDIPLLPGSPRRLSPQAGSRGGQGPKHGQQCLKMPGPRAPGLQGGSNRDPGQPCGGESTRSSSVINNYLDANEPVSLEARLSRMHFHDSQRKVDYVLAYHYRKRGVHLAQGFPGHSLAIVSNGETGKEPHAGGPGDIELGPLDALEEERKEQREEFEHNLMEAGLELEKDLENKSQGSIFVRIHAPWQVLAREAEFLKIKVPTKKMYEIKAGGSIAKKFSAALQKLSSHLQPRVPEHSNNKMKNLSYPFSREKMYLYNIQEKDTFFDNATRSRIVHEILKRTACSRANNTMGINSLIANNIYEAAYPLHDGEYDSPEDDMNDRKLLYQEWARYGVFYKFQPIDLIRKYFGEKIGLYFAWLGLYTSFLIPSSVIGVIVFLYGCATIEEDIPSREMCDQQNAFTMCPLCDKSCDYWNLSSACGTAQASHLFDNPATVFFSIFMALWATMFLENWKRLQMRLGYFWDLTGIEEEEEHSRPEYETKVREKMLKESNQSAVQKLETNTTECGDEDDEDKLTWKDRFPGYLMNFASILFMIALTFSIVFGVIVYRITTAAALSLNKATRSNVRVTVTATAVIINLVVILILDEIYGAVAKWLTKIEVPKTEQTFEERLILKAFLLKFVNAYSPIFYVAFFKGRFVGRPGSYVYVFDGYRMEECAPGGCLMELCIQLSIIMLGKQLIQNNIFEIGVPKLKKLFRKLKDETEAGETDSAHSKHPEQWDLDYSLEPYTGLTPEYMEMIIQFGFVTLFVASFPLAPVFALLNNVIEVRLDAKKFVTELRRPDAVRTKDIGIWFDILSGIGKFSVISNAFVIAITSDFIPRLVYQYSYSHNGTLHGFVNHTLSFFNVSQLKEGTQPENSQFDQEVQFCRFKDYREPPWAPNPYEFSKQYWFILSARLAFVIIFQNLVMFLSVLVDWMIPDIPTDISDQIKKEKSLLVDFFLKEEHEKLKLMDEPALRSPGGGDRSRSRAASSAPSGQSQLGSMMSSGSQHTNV
Description: (§1) Concentration-dependent inhibition of TMEM16A measured by short-circuit current assay; TMEM16B and non-TMEM16 anion conductance measured using a fluorescence plate reader assay using FRT and HT-29 cells respectively; cell viability measured in FRT null cells.
(§2) We further assayed the compound potency on endogenous non-TMEM16A. Ca^2+-activated Cl^− channel in HT-29 cells.
TMEM16A functional assay. TMEM16A functional plate-reader assay was done as previously described. […] Test compounds (0.5 μl in DMSO) were added to each well at specified concentration. […] The initial rate of I− influx following each of the solution additions was computed from fluorescence data by nonlinear regression. TMEM16B activity was assayed similarly as described using FRT cells co-expressing YFP and TMEM16B.

[1] = system: non-TMEM16A Ca2+-activated Cl- channel in HT-29 cells; assay: Non-TMEM16A CaCC plate reader assay in HT-29 cells expressing YFP; format: cell-based; conditions: Homo sapiens, non-TMEM16 anion conductance, fluorescence plate reader assay
Description: as §1, §2
Plate reader assays of chloride channel function, CFTR inhibition was assayed as described. […] Activity of non-TMEM16A CaCC was assayed as described in HT-29 cells expressing YFP.

[2] = In vitro metabolic stability with rat liver microsomes and NADPH; format: in vitro ADME
Description: (3B) LC/MS traces showing total ion counts as a function of incubation time.
These compounds were incubated with rat liver microsomes and NADPH, and non-metabolized compounds were quantified by ESI-LCMS. […] It is speculated that Ani-9 could be oxidized at the aryl methyl or N—N bond; or hydrolyzed at the amide or hydrazone linkages.
Compounds (each 10 uM) were incubated for specific time points (2, 5, 15, 30, 60, 180 min) with shaking at 37° C. with rat liver microsomes (1 mg protein/mL, Sigma-Aldrich, St. Louis, Mo.) in potassium phosphate butler (100 mM) containing 1 mM NADPH. The mixture was then chilled on ice, and 0.5 mL of ice-cold ethyl acetate was added. Samples were centrifuged for 15 min at 3000 RPM. The supernatant was evaporated to dryness, and the residue was dissolved in 80 μL of mobile phase (acetonitrile:/water, 3:1, containing 0.1% formic acid) for LC/MS. Reverse-phase HPLC separation was carried out using a Waters C18 column (2.1 mm×100 mm, […]) equipped with a solvent delivery system (Waters model 2690, Milford, Mass.).

mouse ileum = assay: Ex vivo intestinal contractility of mouse ileum; conditions: increasing concentrations added to bath
Description: The effect of a compound according to one embodiment on intestinal contractility was determined in an ex vivo preparation of mouse ileum. Adult mice (CD1 genetic background) were euthanized by avertin overdose (200 mg/kg, 2,2,2-tribromethanol, Sigma-Aldrich) and ileal segments of ˜2 cm length were isolated and washed with Krebs-Henseleit buffer (pH 7.4, in mM: 118 NaCl, 4.7 KCl, 1.2 MgSO4, 1.2 KH2PO4, 25 NaHCO3, 2.5 CaCl2, 11 D-glucose). […] Tissues were stabilized for 60 min with resting tension of 0.5 g and solutions were changed every 15 min.

[3] = Pharmacokinetics in rats, serum concentration after IP or oral dosing; format: in vivo; conditions: rat
Description: The pharmacokinetics of compounds according to certain embodiments was studied in rats. […] After treatments blood samples were collected by tail vein puncture at specified time points (15, 30, 60, 120 and 180 min). Serum was separated by centrifuging blood samples at 5000 rpm for 15 min. […] The aliquot was then diluted to a total of 2 mL in PBS. A C18 solid-phase extraction (SPE) column (Thermo Fisher, Waltham, Mass.) was conditioned with methanol (2 mL) and PBS (2 mL). The aliquot was loaded onto the conditioned SPE column, and washed with PBS (2 mL) followed by water (2 mL), and the column then dried under vacuum for 5 min. Analytes were eluted with ethyl acetate (3 mL), and concentrated by rotary evaporation. The residues were reconstituted into methanol (150 μL), and then analyzed using a hybrid quadrupole Q-Exactive Orbitrap mass analyzer (Thermo Fisher, Waltham, Mass.), with an electrospray ionization source, employing parallel-reaction monitoring (PRM) to provide high analytical sensitivity.

[4] = system: rat made hypertensive with phenylephrine; assay: Blood pressure in anesthetized rat made hypertensive with phenylephrine; format: in vivo; conditions: phenylephrine 0.25 mg IV, then 0.3 mg compound IV, femoral artery catheter
Description: TMEM16A is expressed in vascular smooth muscle and its inhibition may reduce blood pressure. […] Blood pressure was measured by femoral artery catheter.

SMILES | IC50 (TMEM16B) | IC50 [1] | Compound remaining ([2]; rat liver microsomes + NADPH, 10 uM, 180 min) | Metabolic stability compared to Ani-9 (in words) ([2]; time course of compound degradation, rat liver microsomes) | Effect on spontaneous isometric contractions of ileum (mouse ileum) | Toxic effect (in words) ([3]; 4 mg/kg IP or oral) | Serum concentration ([3]; 4 mg/kg intraperitoneal, for up to 2 h) | Peak serum concentration ([3]; 4 mg/kg intraperitoneal, peak at 60 min) | Serum concentration ([3]; 4 mg/kg oral, for 3 h) | Peak serum concentration ([3]; 4 mg/kg oral, peak at 2 h) | Detectability in serum (in words) ([3]; after intraperitoneal (IP) or oral administration (PO)) | Effect on blood pressure [4]
Cc1ccccc1NC(=O)c1c(NC(=O)C(F)(F)F)sc2c1CCCCC2 [Compound 6aa, 2-(2,2,2-Trifluoro-acetylamino)-5,6,7,8-tetrahydro-4H-cyclohepta[b]thiophene-3-carboxylic acid o-tolylamide] | 1.4 µM | 4 µM |  |  |  |  |  |  |  |  |  | 
Cc1ccccc1NC(=O)c1c(NC(=O)C(F)(F)Br)sc2c1CCCCC2 [Compound 6bm, 2-(2-Bromo-2,2-difluoro-acetylamino)-5,6,7,8-tetrahydro-4H-cyclohepta[b]thiophene-3-carboxylic acid o-tolylamide] |  |  | ~30% | remarkably greater stability | strongly inhibited; also recorded: suppression of isometric smooth muscle contractions | No toxic effect was seen | greater than 3.5 μM | 6.5 µM | greater than 0.5 μM | 1.9 µM | detectable at pharmacologically relevant concentrations | acute reduction in blood pressure
